Assay results published in US20150133467A1, “SCREENING METHOD, PROTEIN INSTABILITY AND/OR STABILITY INDUCERS, AND PROTEIN ACTIVITY ASSESSMENT” (KYOTO UNIVERSITY, priority 2012, published 2015).

Columns and labels:
[1] = test system: EGFP-TAU protein; experiment: Screening with mCherry-2A-EGFP-TAU assay cells, Western blot analysis; format: cell-based, human
Excerpt: An assay cell having the simultaneous expression system of EGFP-fused TAU and mCherry (mCherry-2A-EGFP-TAU) as shown in the model diagram of FIG. 5 was produced. Specifically, the process was as follows. EGFP was fused with TAU (EGFP-TAU), and further, it was connected in-frame by using 2A peptide and mCherry gene that codes a red fluorescent protein (mCherry-2A-EGFP-TAU). The 2A peptide is an amino acid sequence enabling a bicistronic gene expression. Thereby, mCherry-2A-EGFP-TAU is translated simultaneously from the top of a single mRNA. A vector expressing the gene (mCherry-2A-EGFP-TAU) was produced in the following manner.

[2] = biological target: T1, FLAGx3-DYRK1A protein (Homo sapiens, UniProt Q13627); experiment: Screening with FLAGx3-DYRK1A-2A-HAx3-EGFP assay cells, Western blotting; format: cell-based; conditions: Western blot; for amount of intracellular DYRK1A protein: concentration of 4 μm, FIG. 8; for amount of FLAGx3-DYRK1A (FLAG-DYRK1A) protein within the cells: FIGS. 9-12, constant concentration not stated
T1 construct: 2A peptide (what is left of it after self-cleavage) (C); expressed in transfected cells
Experimental: Cultured cells with expressed FLAGx3-DYRK1A-2A-HAx3-EGFP (assay cells) were cultured on a plate, and test compounds of a constant concentration were added to the culture solution for a further cultivation. After the cultivation, the amounts of FLAGx3-DYRK1A, HAx3-EGFP, and GAPDH were quantitatively analyzed by a Western blotting method, and the ratio was analyzed.
After the cultivation, the amounts of FLAGx3-DYRK1A, HAx3-EGFP, and GAPDH were quantitatively analyzed by a Western blotting method, and the ratio was analyzed.
After the cultivation, the respective amounts of FLAGx3-DYRK1A, HAx3-EGFP, and GAPDH were quantitatively analyzed by a Western blotting method, and the ratio was analyzed.

[3] = biological target: T2, DYRK1A (Rattus norvegicus, UniProt Q63470); experiment: Monitoring of DYRK1A activity inhibition using homocysteine in blood as index; format: in vivo; conditions: rats, oral, 18 mg/kg, FIG. 7
T2 construct: from tissue; host or cells: living rat (whole animal); blood plasma analysed for homocysteine
Experimental: DYRK1A inhibitor Harmine was orally administered to rats, and the post-administration homocysteine concentration in blood was measured. The specific conditions are as follows, and the results are illustrated in FIG. 7.
After dissolving the DYRK1A inhibitor Harmine in an administration solvent of 0.9% NaCl, about 1 ml per individual was orally administered (final administration concentration: 18 mg/kg). At certain interval after the administration, the blood was collected from caudate veins. From the blood, blood plasma was separated and preserved in the presence of EDTA-2Na. Analysis of the homocysteine concentration in the blood plasma was consigned to SRL. Specifically, the measurement was conducted by extracting fractures including homocysteine from the blood plasma and then analyzing the amount of homocysteine included in the extract by HPLC (see Araki A et al: Journal of Chromatography 422, 43-52 1987, Araki A: Gendai-Iryou 22, 10, 2544-2549 1990).

melting point [°C] | amount of intracellular DYRK1A protein [2] | Structure (SMILES) | further results
204 to 205 | capable of reducing | COc1ccc(/C=C2\SC(=S)NC2=O)cc1-c1cccc(C)c1 [Compound 5] | –
244 to 245 | – | COc1ccc(/C=C2\SC(=S)NC2=O)cc1-c1cc(C(F)(F)F)cc(C(F)(F)F)c1 [Compound 6, (Z)-5-(3,5-bis(trifluoromethyl)phenyl-4-methoxybenzylidene)-2-thioxothiazolidin-4-one] | –
209 to 210 | – | COc1ccc(/C=C2\SC(=S)NC2=O)cc1-c1cccc(C(F)(F)F)c1 [Compound 7, (Z)-5-(3-(trifluoromethyl)phenyl-4-methoxybenzylidene)-2-thioxothiazolidin-4-one] | –
238 to 239 | – | COc1ccc(/C=C2\SC(=S)NC2=O)cc1-c1cc(C)cc(C)c1 [Compound 8, (Z)-5-(3,5-dimethylphenyl-4-methoxybenzylidene)-2-thioxothiazolidin-4-one] | –
198 to 199 | – | COc1ccc2c([nH]c3c(C)nccc32)c1C#CC1CCCCC1 [Compound 10, 8-[2-(cyclohexyl)ethynyl]harmine] | amount of FLAGx3-DYRK1A (FLAG-DYRK1A) protein within the cells [2]: reduces the FLAGx3-DYRK1A protein

Further lines, the compound ahead of its results:

Structure (SMILES) | melting point [°C] | amount of intracellular DYRK1A protein [2] | further results
Fc1ccc(N2CCN(c3ccccc3)CC2)c(NC(=S)c2ccncc2)c1 [Compound 2, N-[5-fluoro-2-(4-phenyl-1-piperazinyl)phenyl]isonicotinthioamide] | 183 to 186 | – | effect on stability of TAU protein [1]: make TAU protein unstable and allow the protein to decompose; effect on transcription and translation of TAU [1]: not to affect at all; amount of the EGFP-TAU protein within the cells ([1]; Western blot, FIG. 6): reduces only the amount of the EGFP-TAU protein; amount of the internal standard mCherry protein ([1]; Western blot, FIG. 6): does not affect
COc1ccc(/C=C2\SC(=S)NC2=O)cc1C#CC1CCCCC1 [Compound 3, (Z)-5-(3-(cyclohexylethynyl)-4-methoxybenzylidene)-2-thioxothiazolidin-4-one] | 185 to 186 | capable of reducing | –
COc1ccc(/C=C2\SC(=S)NC2=O)cc1C#CC1C2CC3CC(C2)CC1C3 (stereo not drawn) [Compound 4, (Z)-5-(3-(2-adamantylethynyl)-4-methoxybenzylidene)-2-thioxothiazolidin-4-one] | 266 to 267 | capable of reducing | –
COc1ccc2c([nH]c3c(C)nccc32)c1C#C[Si](C)(C)C [Compound 9, 8-[2-(trimethylsilyl)ethynyl]harmine] | 185 to 186 | – | amount of FLAGx3-DYRK1A (FLAG-DYRK1A) protein within the cells [2]: reduces only the amount of the FLAG-DYRK1A protein; amount of the internal standard EGFP protein ([2]; FIGS. 10-11): does not affect
COc1ccc2c(c1)[nH]c1c(C)nccc12 [Harmine] | – | – | homocysteine in blood ([3]; after two hours from administration): raised rapidly; homocysteine in blood compared with controls ([3]; for 5 hours): higher numerical values in comparison with controls
